Consider 13 compounds from patent publication US4042707A, “3α-Arylhydroisoindoles” (E. I. Du Pont de Nemours and Company, priority 1976, dated 1977).

Data set [1] is described as follows: Straub Tail (ST), oral. The following applies: mouse, in vivo, mice, high ED50 desired. The text has this: (§1) Ideally a low ED50 dosage for PQW and a high ED50 dosage for ST (Straub Tail) is desired.
(§2) There is a close correlation between a drug's addiction liability and its ability to cause Straub tail in mice [Shemano and Wendel, Tox. Appl. Pharm., 6, 334-339 (1964)] at doses much below the LD50. […] This property is the basis of a test for detecting new narcotic antagonist drugs.

In data set [2] the test system is phenylquinone-induced writhing. The data set is described as follows: phenylquinone writhing (PQW) test, analgesic activity, oral, mice. The format is in vivo. Particulars: Mus musculus, fasted female white mice, phenylquinone i.p. at 23 or 30 min, ED50 for 50% of mice. The procedure:
A standard procedure for detecting and comparing the analgesic acitivity of the compounds, for which there is good correlation with human efficacy, is the standard phenylquinone writhing (PQW) test modified from Siegmund, et al., Proc. Soc. Exp. Biol. Med. 95, 729 (1957). A test compound suspended in 1% methylcellulose was given orally to fasted (17-21 hours) female white mice, 5-20 animals per double blind test. Aqueous (0.01% phenyl-p-benzoquinone)phenylquinone was injected intraperitoneally at 23 or 30 minutes later using 0.25 ml per mouse. […] The effective analgesic dose for 50% of the mice (ED50) was calculated by the moving average method of Weil, Biometrics 8, 249 (1952).
as §1
In general terms: An intraperitoneal irritant provokes the stretching counted in writhing tests.

The subject of data set [3] is Straub tail induced by morphine sulfate. Kind of data set: narcotic antagonist test: prevention of morphine-induced Straub tail in mice. In kind it is in vivo. The following applies: test drug s.c. 10 min before morphine sulfate 40 mg/kg s.c., observed 20 min, fasted female CF1 S mice; for ED50: Mus musculus, sc, read-out: ED50, prevention of 90° Straub tail (narcotic antagonism). The procedure: as §2
17-21 Hour fasted female CF1 S mice 5 per dose were injected subcutaneously (loose skin inside hind limb) with test drug at 0.67, 2, 6, 18, 54, and 162 mg/kg in 0.20 ml 1% Methocel® per mouse. 10 Minutes later, a dosage of 40 mg/kg (base weight) of morphine sulfate in 0.20 ml 1% Methocel® per mouse was given subcutaneously (nape of neck). The mice were observed continuously for the next 20 minutes after the first mouse of a group of 30 had received morphine. Prevention of a 90° Straub tail during this observation period was taken as indication of narcotic antagonist ability. The table below gives the results for several compounds.

Data set [4] deals with Straub tail in mice induced by morphine. The following applies: Blumberg, Dayton, and Wolf 1968; cited from earlier work.

Counter-ions that a name gives are not always drawn. Where only a bound is given, the exact number is not on record here.

The term ED50 denotes the dose that gives a 50% effect, or the effect in half of the subjects.

Regarding `COc1cccc([C@]23CC(C)=C(C)C[C@@H]2CN(CC2CC2)C3)c1` (relative stereo), the ED50 in data set [1] is > 135 mg/kg; in data set [2] it was 78 mg/kg.
For `C=CCN1C[C@@H]2CC=CC[C@]2(c2ccccc2)C1` (relative stereo) the same measures were > 200 mg/kg and 140 mg/kg.
As to `CN1C[C@@H]2CC=CC[C@]2(c2ccccc2)C1` (relative stereo), the ED50 is > 162 mg/kg in data set [1] and 32 mg/kg in data set [2].
Turning to `CN1C[C@@H]2CCCC[C@]2(c2ccccc2)C1` (relative stereo), the ED50 in data set [1] is > 200 mg/kg; in data set [2], 90 mg/kg.
In turn, `COc1cccc([C@]23CC=CC[C@H]2CN(CCc2ccccc2)C3)c1` (relative stereo) showed an ED50 in data set [2] of 26 mg/kg.
Turning to `CC1=C(C)C[C@]2(c3cccc(O)c3)CN(CC3CC3)C[C@H]2C1` (relative stereo) [Example 2, N-Cyclopropylmethyl-3a-(m-hydroxyphenyl)-5,6-dimethyl-2,3,3a,4,7,7a-trans-hexahydroisoindole], the ED50 in data set [3] was 5.2 mg/kg.
On the same count and under the same terms, the figure for `Oc1cccc([C@]23CC=CC[C@H]2CN(CCc2ccccc2)C3)c1` (relative stereo) [Example 7, N-Phenethyl-3a-(m-hydroxyphenyl)-2,3,3a,4,7,7a-cis-hexahydroisoindole] is 43 mg/kg.
As for `Oc1cccc([C@]23CC=CC[C@H]2CN(CCc2ccccc2)C3)c1` (relative stereo) [Example 8, N-Phenethyl-3a-(m-hydroxyphenyl)-2,3,3a,4,7,7a-hexahydroisoindole Hydrochloride], the “ED50, prevention of 90° Straub tail (narcotic antagonism)” value in data set [3] (Hydrochloride) stood at 54 mg/kg.
`CC1=C(C)C[C@]2(c3cccc(O)c3)CN(CC3CC3)C[C@H]2C1` (relative stereo) [drawing 69]: the median effective dose (ED50) in data set [1] was > 162 mg/kg; in data set [2], 120 mg/kg.
Regarding `Oc1cccc([C@]23CC=CC[C@H]2CN(CCc2ccccc2)C3)c1` (relative stereo) [drawing 74], the 50% effect level in data set [2] (ED50) was put at a dose of 19 mg/kg.
In the case of `CC(C)=CCN1CCC2(C)c3cc(O)ccc3CC1C2C` (stereo not shown) [Pentazocine, reference compound], the “prevention of the induction of Straub tail” value (“prevention … of Straub tail” below) in data set [4] is “can prevent the induction of Straub tail”. For the same compound, the ED50 in data set [3] was found to be 4 mg/kg.
`C=CCN1CC[C@]23c4c5ccc(O)c4O[C@H]2[C@@H](O)C=C[C@H]3[C@H]1C5` [nalorphine]: the “prevention … of Straub tail” value in data set [4] is “can prevent the induction of Straub tail”.
For the compound `C=CCN1CC[C@]23c4c5ccc(O)c4O[C@H]2C(=O)CC[C@@]3(O)[C@H]1C5` [naloxone], the “prevention … of Straub tail” value in data set [4] is listed as “can prevent the induction of Straub tail”.
